Tested on: green peach aphid
Assay: Field test of green peach aphid: dsRNA spray compared with imidacloprid
Assay type: in vivo, Myzus persicae
Conditions: dsRNA 300 ng/μl in water, 300 μl per plant, imidacloprid 10,000 times solution
Excerpt: Control effect (%)=(1−CK0×PT1/CK1×PT0)×100
wherein PT0: the number of insects before drug administration in the treatment area; PT1: the number of insects after drug administration in the treatment area; • CK0: the number of insects before drug administration in the control area; CK1: the number of insects after drug administration in the control area.
the dropping rate of insect population (%)=[(number of insects before drug administration−number of insects after drug administration)/number of insects before drug administration]×100
1. Radish seedlings of 12-15 days, inoculated with 100 insects, stabilized for 1 day, sprayed with dsRNA the next day.
2. The concentration of dsRNA used for spraying was 300 ng/μl. The synthesized dsRNA was dissolved in water and sprayed 300 μl per plant.
3. The concentration of imidacloprid was 10,000 times solution (Germany Bayer Emerald 70% imidacloprid 3 g, water dispersible granules), sprayed 300 μl per plant.
4. The experiment method: spray treatment, 4 replicates for each treatment.

## O=[N+]([O-])NC1=NCCN1Cc1ccc(Cl)nc1 [Imidacloprid, imidacloprid]
1 d
  Field test of green peach aphid: Control effect, 1 d: 70.96 ± 4.25 Cc %
1 d, radish seedlings, 100 insects
  Field test of green peach aphid: the dropping rate of insect population, 1 d: 37.33 ± 9.65 Bb %
3 d
  Field test of green peach aphid: Control effect, 3 d: 93.78 ± 3.14 Cb %
3 d, radish seedlings, 100 insects
  Field test of green peach aphid: the dropping rate of insect population, 3 d: 75.83 ± 15.25 Bb %
5 d
  Field test of green peach aphid: Control effect, 5 d: 97.37 ± 1.88 Bb %
5 d, radish seedlings, 100 insects
  Field test of green peach aphid: the dropping rate of insect population, 5 d: 84.35 ± 9.60 Bb %

From patent publication US20210139902A1, “RNAI TARGET GENE THAT IS HIGHLY LETHAL TO APHIDS AND USE THEREOF” (CAS Center For Excellence in Molecular Plant Sciences, priority 2018, published 2021)
